Assay results as given in US20250084074A1, “SUBSTITUTED HETEROCYCLES AS HSET INHIBITORS” (MERCK PATENT GMBH, priority 2022, published 2025).
Counter-ions that a name gives are not always drawn.

biological target: HSET full length protein (Homo sapiens (Human), UniProt Q9BW19); experiment: HSET ADP-Glo Assay S - 3 μM ATP; assay type: biochemical; conditions: 5 nM HSET, 70 μg/mL microtubule, 80 min at rt, read-out: COMBINED HSET ADP GLO IC50
How it was run: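 ADP-Glo luminescence read-out: ATPase reaction at 3 μM ATP, 80 min at room temperature, after a 10 min compound preincubation. Enzyme was full-length human HSET at 5 nM, stimulated by 70 μg/mL paclitaxel-stabilised bovine microtubules in HEPES pH 6.8 buffer with MgCl2, EGTA, Triton X-100 and DTT.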

Sequence of HSET full length protein (Q9BW19 whole entry): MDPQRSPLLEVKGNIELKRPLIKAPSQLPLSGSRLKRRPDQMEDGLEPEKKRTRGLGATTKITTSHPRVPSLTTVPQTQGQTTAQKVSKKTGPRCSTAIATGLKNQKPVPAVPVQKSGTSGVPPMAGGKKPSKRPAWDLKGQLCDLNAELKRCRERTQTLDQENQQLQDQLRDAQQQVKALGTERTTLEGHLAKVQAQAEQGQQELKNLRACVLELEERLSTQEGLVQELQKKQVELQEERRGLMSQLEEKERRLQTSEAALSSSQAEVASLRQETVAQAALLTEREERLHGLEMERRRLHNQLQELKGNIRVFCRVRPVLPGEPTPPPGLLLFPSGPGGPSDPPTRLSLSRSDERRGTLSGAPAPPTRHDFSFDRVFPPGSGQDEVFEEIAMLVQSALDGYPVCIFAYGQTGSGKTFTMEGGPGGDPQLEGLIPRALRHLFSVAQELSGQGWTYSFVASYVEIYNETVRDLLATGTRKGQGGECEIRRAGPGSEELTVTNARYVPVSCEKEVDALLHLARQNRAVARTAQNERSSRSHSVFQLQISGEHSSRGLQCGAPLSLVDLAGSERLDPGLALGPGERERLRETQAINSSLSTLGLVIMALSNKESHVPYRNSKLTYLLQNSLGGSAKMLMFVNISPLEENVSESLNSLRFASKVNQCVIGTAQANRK

Row | Compound | IC50 [nM]
1 | CCOC(=O)c1sc(NC(=O)CCNC(=O)c2cc(C#N)cc(C(=O)OC)c2)nc1C [Example 17, Ethyl 2-[3-[(3-cyano-5-methoxycarbonyl-benzoyl)amino]propanoylamino]-4-methyl-thiazole-5-carboxylate] | 869
2 | CCOC(=O)c1sc(NC(=O)CCNC(=O)c2cccc(-n3cccn3)c2)nc1C [Example 3, Ethyl 2-(3-(3-(1 H-pyrazol-1-yl)benzamido)propanamido)-4-methylthiazole-5-carboxylate] | 4570
3 | CCOC(=O)c1sc(NC(=O)CCNC(=O)c2cccc(-c3ncon3)c2)nc1C [Example 23, Ethyl 2-(3-(3-(1,2,4-oxadiazol-3-yl)benzamido)propanamido)-4-methylthiazole-5-carboxylate] | 146
4 | COC/C=C/c1sc(NC(=O)CCNC(=O)c2cccc(-c3noc(C)n3)c2)nc1C [Example 94, N-[3-[[5-[(E)-3-methoxyprop-1-enyl]-4-methyl-thiazol-2-yl]amino]-3-oxo-propyl]-3-(5-methyl-1,2,4-oxadiazol-3-yl)benzamide] | 13400
5 | CCCN(C)C(=O)c1sc(NC(=O)CCNc2nccc3ccc(-c4noc(C)n4)cc23)nc1C [Example 85, N,4-dimethyl-2-[3-[[7-(5-methyl-1,2,4-oxadiazol-3-yl)-1-isoquinolyl]amino]propanoylamino]-N-propyl-thiazole-5-carboxamide] | 1740
6 | Cc1noc(-c2sc(NC(=O)CCNC(=O)c3cccc(-c4noc(C)n4)c3)nc2C)n1 [Example 118, 3-(5-methyl-1,2,4-oxadiazol-3-yl)-N-(3-((4-methyl-5-(3-methyl-1,2,4-oxadiazol-5-yl)thiazol-2-yl)amino)-3-oxopropyl)benzamide] | 8410
7 | CCOC(=O)c1cc(C(=O)NCCNc2nccc3ccc(-c4noc(C)n4)cc23)nn1C [Example 71, Ethyl 1-methyl-3-((2-((7-(5-methyl-1,2,4-oxadiazol-3-yl)isoquinolin-1-yl)amino)ethyl)carbamoyl)-1 H-pyrazole-5-carboxylate] | 10900
8 | CCCNC(=O)c1cc(NC(=O)CCNc2nccc3ccc(-c4noc(C)n4)cc23)nn1C [Example 73, 1-Methyl-3-(3-((7-(5-methyl-1,2,4-oxadiazol-3-yl)isoquinolin-1-yl)amino)propanamido)-N-propyl-1 H-pyrazole-5-carboxamide] | 3890
9 | Cc1nc(-c2ccc3ncnc(NCCC(=O)Nc4nc(C)c(C(C)(C)C)s4)c3c2)no1 [Example 47, N-(5-tert-butyl-4-methyl-thiazol-2-yl)-3-[[6-(5-methyl-1,2,4-oxadiazol-3-yl)quinazolin-4-yl]amino]propanamide formate] | 147
10 | CCOC(=O)c1sc(NC(=O)CCNC(=O)c2cc(OC)cc(C(=O)OC)c2)nc1C [Example 16, Ethyl 2-[3-[(3-methoxy-5-methoxycarbonyl-benzoyl)amino]propanoylamino]-4-methyl-thiazole-5-carboxylate] | 301
11 | Cc1nc(-c2ccc3ccnc(NCCC(=O)Nc4cc(C(=O)OC5CCCC5)n(C)n4)c3c2)no1 [Example 138, Cyclopentyl-1-methyl-3-(3-((7-(5-methyl-1,2,4-oxadiazol-3-yl)isoquinolin-1-yl)amino)propanamido)-1 H-pyrazole-5-carboxylate] | 11
12 | Cc1nc(-c2ccc3ccnc(NCCC(=O)Nc4cc(C(F)(F)F)n(C)n4)c3c2)no1 [Example 56, 3-((7-(5-methyl-1,2,4-oxadiazol-3-yl)isoquinolin-1-yl)amino)-N-(1-methyl-5-(trifluoromethyl)-1 H-pyrazol-3-yl)propenamide] | 1260
13 | C=C(c1ccccc1)c1sc(NC(=O)CCNC(=O)c2cccc(-c3noc(C)n3)c2)nc1C [Example 95, 3-(5-Methyl-1,2,4-oxadiazol-3-yl)-N-[3-[[4-methyl-5-(1-phenylvinyl)thiazol-2-yl]amino]-3-oxo-propyl]benzamide] | 823

Now from value to compound:

Row | IC50 [nM] | Compound
14 | 14500 | Cc1nc(-c2ccc3ccnc(N[C@H]4CCN(C(=O)c5cc(C(C)C)n(C)n5)C4)c3c2)no1 [Example 249, (S)-(5-isopropyl-1-methyl-1 H-pyrazol-3-yl)(3-((7-(5-methyl-1,2,4-oxadiazol-3-yl)isoquinolin-1-yl)amino)pyrrolidin-1-yl)methanone]
15 | 1 | CCCOC(=O)c1sc(NC(=O)[C@H](O)CNc2nccc3ccc(-c4noc(C)n4)cc23)nc1C [Example 176, Propyl (R)-2-(2-hydroxy-3-((7-(5-methyl-1,2,4-oxadiazol-3-yl)isoquinolin-1-yl)amino)propanamido)-4-methylthiazole-5-carboxylate]
16 | 19 | CCCOC(=O)c1sc(NC(=O)C[C@H](CCCNC)NC(=O)c2cccc(-c3noc(C)n3)c2)nc1C [Example 152, Propyl 4-methyl-2-[[(3S)-6-(methylamino)-3-[[3-(5-methyl-1,2,4-oxadiazol-3-yl)benzoyl]amino]hexanoyl]amino]thiazole-5-carboxylate]
17 | 30 | CCCOC(=O)c1sc(N(C)C(=O)CCNC(=O)c2cc(Cl)cc(-c3noc(C)n3)c2)nc1C [Example 233, Propyl 2-(3-(3-chloro-5-(5-methyl-1,2,4-oxadiazol-3-yl)benzamido)-N-methylpropanamido)-4-methylthiazole-5-carboxylate]
18 | 12 | Cc1nc(-c2ccc3ccnc(N[C@H]4CCN(C(=O)Nc5nc(C)c(C(=O)OC(C)(C)C)s5)C4)c3c2)no1 [Example 226, tert-Butyl 4-methyl-2-[[(3S)-3-[[7-(5-methyl-1,2,4-oxadiazol-3-yl)-1-isoquinolyl]amino]pyrrolidine-1-carbonyl]amino]thiazole-5-carboxylate]
19 | 200 | CCCOC(=O)n1cc(NC(=O)CCNC(=O)c2cccc(-c3noc(C)n3)c2)nc1C [Example 263]
20 | 5 | Cc1nc(-c2ccc3ccnc(NC4CN(C(=O)N(C)c5nc(C)c(C(=O)OC(C)(C)C)s5)C4)c3c2)no1 [Example 231, tert-Butyl 4-methyl-2-[methyl-[3-[[7-(5-methyl-1,2,4-oxadiazol-3-yl)-1-isoquinolyl]amino]azetidine-1-carbonyl]amino]thiazole-5-carboxylate]
21 | 21 | CCCOC(=O)c1sc(NC(=O)C[C@H](CCCN2CCOCC2)NC(=O)c2cccc(-c3noc(C)n3)c2)nc1C [Example 159, Propyl (S)-4-methyl-2-(3-(3-(5-methyl-1,2,4-oxadiazol-3-yl)benzamido)-6-morpholinohexanamido)thiazole-5-carboxylate]
22 | 30 | CCCOC(=O)c1sc(C(=O)N2CC[C@H](NC(=O)c3cccc(-c4nnn(C)n4)c3)C2)nc1C [Example 242, Propyl 4-methyl-2-[(3S)-3-[[3-(2-methyltetrazol-5-yl)benzoyl]amino]pyrrolidine-1-carbonyl]thiazole-5-carboxylate]
23 | 4000 | Cc1nc(NC(=O)C[C@@H](CC#N)Nc2nccc3ccc(C#N)cc23)sc1C(=O)OC(C)C [Example 209, Propan-2-yl 2-[(3R)-4-cyano-3-[(7-cyanoisoquinolin-1-yl)amino]butan-amido]-4-methyl-1,3-thiazole-5-carboxylate]
24 | 6 | CNCCC[C@@H](CC(=O)Nc1nc(C)c(C(=O)OC(C)(C)C)s1)NC(=O)c1cccc(-c2noc(C)n2)c1 [Example 154, Tert-butyl 4-methyl-2-[[(3S)-6-(methylamino)-3-[[3-(5-methyl-1,2,4-oxadiazol-3-yl)benzoyl]amino]hexanoyl]amino]thiazole-5-carboxylate]
25 | 10 | Cc1nc(-c2ccc3ccnc(N[C@H]4C[C@@](F)(C(=O)Nc5nc(C)c(C(=O)OC(C)(C)C)s5)C4)c3c2)no1 [Example 222, tert-butyl 2-((1 r,3r)-1-fluoro-3-((7-(5-methyl-1,2,4-oxadiazol-3-yl)isoquinolin-1-yl)amino)cyclobutane-1-carboxamido)-4-methylthiazole-5-carboxylate]
26 | 79 | Cc1nc(NC(=O)C[C@H](CC#N)Nc2nccc3ccc(C#N)cc23)sc1C(=O)OC(C)C [Example 208, Propan-2-yl 2-[(3S)-4-cyano-3-[(7-cyanoisoquinolin-1-yl)amino]butan-amido]-4-methyl-1,3-thiazole-5-carboxylate]
27 | 219 | Cc1nc(-c2ccc3ccnc(N[C@H]4C[C@](F)(C(=O)Nc5nc(C)c(C(=O)OC(C)(C)C)s5)C4)c3c2)no1 [Example 223, tert-Butyl 2-((1s,3s)-1-fluoro-3-((7-(5-methyl-1,2,4-oxadiazol-3-yl)isoquinolin-1-yl)amino)cyclobutane-1-carboxamido)-4-methylthiazole-5-carboxylate]
28 | 4140 | Cc1nc(-c2ccc3ccnc(N[C@H]4CCN(C(=O)c5cc(-c6ccccc6)n(C)n5)C4)c3c2)no1 [Example 248, (S)-(3-((7-(5-methyl-1,2,4-oxadiazol-3-yl)isoquinolin-1-yl)amino)pyrrolidin-1-yl)(1-methyl-5-phenyl-1 H-pyrazol-3-yl)methanone]

biological target: HSET (Homo sapiens (Human), UniProt Q9BW19); experiment: not given; conditions: literature (Watts et al., 2013; Zhang et al., 2016); read-out: HSET IC50 in biochemical assays; cited from earlier work
Sequence (Q9BW19 whole entry): as above

Row | Compound | IC50 [nM]
29 | O=C(O)c1cc(I)ccc1NC(=O)[C@H](Cc1ccccc1)NCc1ccccc1 [CW069] | 75000
30 | COc1ccc(-c2nc(N)s[n+]2-c2ccccc2)cc1 [SR31527] | 6600
